US10154970B2, “Methods for immunomodulation of cancer and infectious disease therapy” (The Regents of the University of California, priority 2014, dated 2018)
Like-named read-outs stand apart in the source and are kept apart here.

What was measured:
[1] = system: IFN-γ; settings: for antigen-specific immune response to the PV: short-course treatment
Experimental: FIG. 5. Effect of TRIP on the immune response to an antigen-specific peptide vaccine (PV). Mice received 8 weekly 10-μg doses of PV and daily oral TRIP treatment for the final 16 days of the study. Lymphocytes were isolated 48 hours after the final dose of PV for the enzyme-linked immunosorbent spot (ELISpot) assay. Data are expressed as the number of spot forming cells (SFC)/500,000 lymphocytes following exposure to medium (no peptide), scrambled peptide, and BP25 peptide.
(§1) A total of 43 wild type C57BL/6 mice were assigned to four different treatment groups: Control (n=10); and TRIP (i.e., ospemifene) 10, 50, and 100 mg/kg (n=11, all TRIP groups). All mice received a full course of tecemotide (L-BLP25) peptide vaccine (PV) immunotherapy (eight weekly 10 μg doses administered subcutaneously (s.c.) as described in Wurz G T. et al., J. Transl. Med., 11:64 (2013)). During the final 16 days of immunotherapy, mice received daily oral doses of TRIP according to treatment group assignment. TRIP oral dosing solutions were prepared by dissolving an appropriate amount of the drug in pure dimethyl sulfoxide (DMSO) and then adding peanut oil to the desired final concentration (final DMSO concentration was 2%). All doses were administered in a volume of 100 μl using 20-gauge stainless steel oral feeding needles. Control mice were given diluent only. Forty-eight hours following the final dose of PV, all mice were euthanized for the collection of blood for cytokine analysis by multiplex and spleens for assessing immune response by enzyme-linked immunosorbent spot (ELISpot) assay.
Data are expressed as the number of spot forming cells (SFC)/500,000 lymphocytes following exposure to medium (no peptide), scrambled peptide, and BP25 peptide.

[2] = system: IFN-γ; settings: non-tumor bearing mice, 48 hours after final PV dose
Experimental: (§2) FIG. 6. Effect of TRIP and PV combination treatment on serum cytokine levels. Serum cytokines were assessed by multiplex immunoassay 48 hours following the final dose of PV, which was administered as 8 weekly 10-μg doses. TRIP was administered daily for the last 14 days of the study.
as §1

[3] = system: IL-6
Experimental: as §2, §1

[4] = system: IFN-γ; assay: Experiment 4: IFN-γ ELISpot after short-course TRIP and PV in lung tumor-bearing mice; type: in vivo, human MUC1.Tg C57BL/6 mice; settings: short-course (16-day) TRIP 10 or 50 mg/kg + one cycle of PV
Experimental: Effect of short-course (16-day) TRIP treatment on IFN-γ immune response. […] Lymphocytes were isolated following treatment with one cycle of PV, TRIP 10 mg/kg, TRIP 50 mg/kg, or combinations (n=10-11). PV=peptide vaccine.
A total of 65 male human MUC1.Tg C57BL/6 mice underwent urethane lung tumor induction as described (Wurz G T. et al., J. Transl. Med., 11:64 (2013)) starting at approximately five weeks of age. […] Starting in Week 20, all mice in the PV treatment groups were administered eight weekly 10 μg doses by subcutaneous (s.c.) injection (100 μl) at rotating sites using a 25-gauge needle. […] All other mice received daily oral doses of the control solution. Twenty-four hours after the final dose of TRIP and 48 hours after the last dose of PV (Week 27), all mice were euthanized for the collection of serum and spleens, which were processed appropriately for ELISpot and CTL assays. For the ELISpot assay, n=4-5.

[5] = system: regulatory T cells (Tregs); assay: Experiment 5: regulatory T cells (FoxP3+/CD4+) by flow cytometry; type: in vivo, human MUC1.Tg C57BL/6 mice; settings: TRIP 100 mg/kg or letrozole 0.8 mg/kg daily oral 14 days
Experimental: A total of 32 female human MUC1.Tg C57BL/6 mice, starting at approximately six weeks of age, were treated with urethane as described (Wurz G T. et al., J. Transl. Med., 11:64 (2013)). Two weeks following the final dose of urethane (Week 17), the mice were randomized into four treatment groups of approximately equal average weight (n=8, all groups): Control (no treatment); TRIP (i.e., ospemifene) 100 mg/kg; estradiol 25 μg/kg; and letrozole 0.8 mg/kg. TRIP and letrozole were prepared in DMSO and peanut oil as described above in Experiment 2 and administered daily for 14 days by oral gavage (100 μL). Estradiol was dissolved in 100% ethanol, diluted in PBS to achieve the desired concentration, and then administered daily for 14 days by s.c. injection at rotating sites using a 25-gauge needle. In Week 19, the study was terminated, 24 hours after the last treatments, and serum and spleens were collected for surface marker and Treg analyses.
After two weeks of treatment, lymphocytes were isolated from spleen. T-cell surface markers (CD4, CD8, PD-1, CD28) and regulatory T cells (Tregs) were analyzed by flow cytometry.

[6] = system: IFN-γ; settings: chronic daily TRIP 50 mg/kg + two cycles of PV
Experimental: (§3) FIG. 15. […] Antigen-specific IFN-γ immune response was assessed by ELISpot 48 hours following two cycles of peptide vaccine (PV).
(§4) A total of 55 mixed-sex hMUC1.Tg C57BL/6 mice, starting at approximately five weeks of age, were treated with urethane as described above. Approximately six weeks after the last dose of urethane, mice were randomized into four treatment groups of approximately equal average weight: Control (n=22); TRIP (i.e., ospemifene) 50 mg/kg (n=16); tecemotide (L-BLP25) peptide vaccine (PV) (n=6); and TRIP+PV (n=11). At this time (Week 21), mice assigned to the […] began treatment with the first of two cycles consisting of eight weekly 10 μg doses each, with approximately four weeks between cycles. Cycle 1 was administered during Weeks 21-28, and Cycle 2 from Weeks 32-39. The PV was prepared and administered as described above. Mice in the TRIP groups began daily oral treatment in Week 31, which continued through the end of the study (approximately eight weeks of dosing). TRIP was prepared and administered as described above. Mice not assigned to TRIP treatment received daily oral doses of diluent. At the conclusion of the study, 48 h after the final dose of PV and 24 h after the last dose of TRIP, all mice were euthanized for the collection of serum and spleens, which were processed as described above for multiplex serum cytokine, Treg, and CTL analyses.

[7] = system: cytotoxic T lymphocyte activity
Experimental: as §3, §4

[8] = system: mouse breast cancer cells expressing the PV target antigen (BP25); assay: Example 6: tumor volume of breast cancer allografts; type: in vivo, C57BL/6 wild type mice; settings: three daily oral doses TRIP 100 mg/kg before each of four weekly 100 μg PV; Days 22 and 25
Experimental: Antitumor effects and serum IFN-γ immune response to peptide vaccine immunotherapy alone and in combination with TRIP immunomodulator. Each of four weekly 100-μg injections of peptide vaccine (PV) was preceded by three daily oral doses of TRIP (100 mg/kg). All mice were implanted with breast cancer allografts on Day 0, and serum was collected on Day 28 following four weeks of treatment. Tumor volumes were measured twice each week. For all treatment groups, n=8.
A total of 32 female C57BL/6 wild type mice were assigned to four treatment groups (n=8): Control; TRIP (i.e., ospemifene) 100 mg/kg; tecemotide (L-BLP25) peptide vaccine (PV) (100 μg); and TRIP 100 mg/kg combined with 100 μg PV. On Day 0 of the study, all 32 mice were subcutaneously implanted with 1.0×10^6 mouse breast cancer cells expressing the PV target antigen (BP25). Two days later, mice began a three-day regimen of once daily 100 mg/kg TRIP administered orally. On Day 5, mice were administered their first weekly 100 μg dose of PV by subcutaneous injection. This treatment schedule was repeated for a total of four weeks. Tumor growth was assessed twice weekly. All mice were euthanized on Day 28 for the collection of serum and spleens to assess immune response to treatment. Immune response was assessed by performing IFN-γ ELISpot.

[9] = system: IFN-γ; assay: Example 6: serum IFN-γ on Day 28 in allograft-bearing mice; type: in vivo, C57BL/6 wild type mice; settings: Day 28, 48 hours after final PV dose; TRIP 100 mg/kg
Experimental: Each of four weekly 100-μg injections of peptide vaccine (PV) was preceded by three daily oral doses of TRIP (100 mg/kg). All mice were implanted with breast cancer allografts on Day 0, and serum was collected on Day 28 following four weeks of treatment. […] For all treatment groups, n=8.
A total of 32 female C57BL/6 wild type mice were assigned to four treatment groups (n=8): Control; TRIP (i.e., ospemifene) 100 mg/kg; tecemotide (L-BLP25) peptide vaccine (PV) (100 μg); and TRIP 100 mg/kg combined with 100 μg PV. On Day 0 of the study, all 32 mice were subcutaneously implanted with 1.0×10^6 mouse breast cancer cells expressing the PV target antigen (BP25). Two days later, mice began a three-day regimen of once daily 100 mg/kg TRIP administered orally. On Day 5, mice were administered their first weekly 100 μg dose of PV by subcutaneous injection. This treatment schedule was repeated for a total of four weeks. […] All mice were euthanized on Day 28 for the collection of serum and spleens to assess immune response to treatment. Immune response was assessed by performing IFN-γ ELISpot.

[10] = system: pro-inflammatory cytokines (IL-6, IP-10, MIG, IL-1β, KC)
Experimental: Serum was analyzed by multiplex immunoassay 24 hours following the last dose of TRIP at each time point.
(§5) Following induction of lung cancer as described (Wurz G T. et al., J. Transl. Med., 11:64 (2013)), mice were randomized into four treatment groups: Control; and TRIP (i.e., ospemifene) 5, 25, and 50 mg/kg (n=12, all groups). TRIP and control solutions were orally administered by gavage according to treatment group. After 30 days of treatment (Week 20), a total of 16 mice, four from each treatment group, were euthanized, and whole blood was collected by cardiac puncture. The remaining mice continued daily TRIP treatments. An additional 16 mice, four from each treatment group, were euthanized following 60 (Week 24) and 90 (Week 28) days of treatment, and whole blood and livers were collected. Serum samples were subjected to multiplex cytokine analysis for TH1 (IL-2, IL-12, IFN-γ, TNF-α), TH2 (IL-4, IL-5, IL-10, IL-13) and inflammatory cytokines (MIP-1α, IP-10, MIG, IL-1β, IL-6, KC).
Terminal serum pro-inflammatory cytokines (IL-6, IP-10, MIG, IL-1β, KC) were analyzed 24 hours after the last dose at each time point (FIG. 7).

[11] = system: IFN-γ; settings: at 20 weeks (30 days), 5-mg/kg TRIP dose level
Experimental: Average serum IFN-γ concentrations following daily oral TRIP treatment for 30 (Week 20), 60 (Week 24), and 90 (Week 28) days at the indicated doses (mg/kg). Serum was analyzed by multiplex immunoassay 24 hours after the final TRIP dose at each time point.
as §5

[12] = system: cytotoxic T lymphocyte activity; settings: TRIP 50 mg/kg daily oral 16 days + PV
Experimental: Effects of short-course TRIP dosing regimens on cytotoxic T lymphocyte activity. Average target cell apoptosis percentages (+SEM) were assessed in control (n=10), one cycle of PV (n=11), short-course TRIP (16 days; 10 mg/kg, TRIP 10; 50 mg/kg, TRIP 50; n=11), and PV+TRIP combination (n=11) treatment groups. PV=peptide vaccine; *p<0.05.
A total of 65 male human MUC1.Tg C57BL/6 mice underwent urethane lung tumor induction as described (Wurz G T. et al., J. Transl. Med., 11:64 (2013)) starting at approximately five weeks of age. In Week 20, six weeks after the last dose of urethane, mice were randomized into six treatment groups of approximately equal average weight: Control (n=10); TRIP (i.e., ospemifene) 10 mg/kg (n=11); TRIP 50 mg/kg (n=11); tecemotide (L-BLP25) peptide vaccine (PV) alone (n=11); TRIP 10 mg/kg+PV (n=11); and TRIP 50 mg/kg+PV (n=11). Starting in Week 20, all mice in the PV treatment groups were administered eight weekly 10 μg doses by subcutaneous (s.c.) injection (100 μl) at rotating sites using a 25-gauge needle. […]
Average target cell apoptosis percentages (+SEM) were assessed in control (n=10), one cycle of PV (n=11), short-course TRIP (16 days; 10 mg/kg, TRIP 10; 50 mg/kg, TRIP 50; n=11), and PV+TRIP combination (n=11) treatment groups. […]

[13] = chronic daily TRIP 50 mg/kg + PV

OCCOc1ccc(/C(=C(/CCCl)c2ccccc2)c2ccccc2)cc1 [TRIP, Z-2-[4-(4-chloro-1,2-diphenyl-but-1-enyl)-phenoxy]ethanol]
IFN-γ immune response by ELISpot, TRIP combined with PV vs PV alone ([1]; TRIP 10, 50, 100 mg/kg daily oral final 16 days + 8 weekly 10 μg PV s.c.): significantly increase | antigen-specific immune response to the PV ([1]; high (100 mg/kg) dose of TRIP): significantly increased | antigen-specific immune response to the PV ([1]; low (10 mg/kg) dose of TRIP): significantly increased | serum IFN-γ levels, TRIP and PV vs PV alone [2]: increased | serum concentrations of IL-6, TRIP 100 mg/kg and PV compared to PV alone ([3]; TRIP 100 mg/kg + PV): significantly lower | serum IL-6 concentrations, TRIP and PV vs PV alone ([3]; non-tumor bearing mice, 48 hours after final PV dose): dose-dependently decreased | IFN-γ immune response by ELISpot, TRIP in combination with the PV [4]: equivalent increase | Tregs (FoxP3+/CD4+) compared to estradiol treatment [5]: significantly inhibited | PV-induced, antigen-specific immune response (IFN-γ ELISpot) [6]: significantly decreased | CTL activity of the combination over that of PV alone [7, 13]: increased CTL activity | additive CTL activity in combination with PV [7, 13]: no additive CTL activity | CTL activity compared to control ([7]; chronic daily TRIP 50 mg/kg alone): slightly, but not significantly increased | tumor volume compared to the control group, PV in combination with TRIP [8]: reduced tumor volume | serum IFN-γ compared to the control and TRIP alone treatment groups, TRIP + PV [9]: significantly increased | pro-inflammatory serum cytokine levels ([10]; TRIP 5, 25, 50 mg/kg daily oral, 30, 60, 90 days, compared to control group): decreasing levels | serum IL-6 levels, control vs all doses of TRIP ([10]; at 28 weeks (90 days of treatment)): Differences | serum IFN-γ [11]: elevated | induction of CTL activity, PV with short-course TRIP compared to TRIP or PV treatments alone [12]: significantly boosted
